Here are results for 27 molecules from ChEMBL document CHEMBL1137533, “Activity of 7-methyljuglone derivatives against Mycobacterium tuberculosis and as subversive substrates for mycothiol disulfide reductase” (Bioorg Med Chem, 2007).

A word on the IC50: it is the concentration that gives 50% inhibition. Broadly, the MIC is the least concentration at which growth counts as inhibited. In general, Km refers to the concentration of substrate that gives half-maximal velocity. As usually defined, the kcat is the number of substrate molecules converted per active site and unit of time at saturation.

Experiment [1] in a line: Selectivity index, ratio of IC50 for Vero cells to MIC of Mycobacterial tuberculosis H37Rv. Format: functional.
Experiment [2] relates to Vero. Nature of the experiment: Cytotoxicity against Vero cells after 48 hrs by XTT method. The settings on record: Chlorocebus sabaeus. It counts as cell-based. (Tetrazolium assays rely on reduction of a dye to a coloured formazan, in cell work by metabolically active cells.)
The test system of experiment [3] is Mycobacterium tuberculosis. Nature of the experiment: Antimycobacterial activity against Mycobacterium tuberculosis H37Rv. It counts as functional.
The subject of experiment [4] is Mycobacterium tuberculosis. Description: Ratio of kcat to Km of Mycobacterium tuberculosis mycothiol reductase. More on the design: unit not given here.
For experiment [5], the system named is Mycobacterium tuberculosis. Nature of the experiment: Antimycobacterial activity against Mycobacterium tuberculosis H37Rv at MIC. Format: functional.
Experiment [6] concerns Mycobacterium tuberculosis. Description: Activity of Mycobacterium tuberculosis mycothiol reductase.
Experiment [7] relates to Mycobacterium tuberculosis. Description: Activity of Mycobacterium tuberculosis mycothiol reductase upto 800 uM.

≈ marks a conversion by molar mass, not a printed value. Calls of active or inactive are those of the source. The rule behind the calls is not given here. Bounds are passed on as bounds.

Take `Cc1ccc2c(c1O)C(=O)C=CC2=O`: the Ratio in experiment [1] is listed as 0.63. For the same molecule, the midpoint of inhibition in experiment [2], the IC50, lay at 3.1 µg/mL (≈ 16.5 µM). In addition, in experiment [3], the MIC is 5 µg/mL (≈ 26.6 µM).

For `CC(=O)Oc1cc(C)cc2c1C(=O)C=CC2=O`, the Ratio in experiment [1] was 2.4. In addition, the kcat/Km in experiment [4] is 8.15e+07. This molecule came in with an IC50 in experiment [2] of 6 µg/mL (≈ 26.1 µM). This molecule also came in with an Activity in experiment [5] of 99.9%. Further, in experiment [6], the Km is 389 µM and the kcat is 3.17 s⁻¹. In addition, the MIC in experiment [3] came to 2.5 µg/mL (≈ 10.9 µM).

For the molecule `CC(=O)Oc1cc(C)c(Cl)c2c1C(=O)C=CC2=O`, in experiment [1], the Ratio came out at 0.63. The molecule also came in with an IC50 in experiment [2] of 6.3 µg/mL (≈ 23.8 µM). Also, in experiment [5], the Activity is 99.9%. Also, in experiment [3], the MIC was 10 µg/mL (≈ 37.8 µM).

For `COc1cc(C)cc2c1C(=O)C=CC2=O`, the Ratio in experiment [1] is given as 0.39. Also, the IC50 in experiment [2] was found to be 5.8 µg/mL (≈ 28.7 µM). For the same molecule, the Activity in experiment [5] stood at 99.9%. The molecule also came in with an MIC in experiment [3] of 15 µg/mL (≈ 74.2 µM).

In turn, `CC(=O)Oc1cc(OC(C)=O)c2c(OC(C)=O)c(C)cc(Cl)c2c1OC(C)=O` came in with an IC50 in experiment [2] of 149 µg/mL (≈ 365 µM). Also, the Activity in experiment [5] is reported as 99.9%. The molecule further displayed an MIC in experiment [3] above 20 µg/mL.

In the case of `COc1cc(C)c(Cl)c2c1C(=O)C=CC2=O`, the kcat/Km in experiment [4] is 3.3e+06. In experiment [2], this molecule displayed an IC50 of 7.7 µg/mL (≈ 32.5 µM). This molecule registered an Activity in experiment [5] of 99.9%. Moreover, in experiment [6], the Km was 435 µM and the kcat worked out at 0.142 s⁻¹. Moreover, the MIC in experiment [3] is above 20 µg/mL.

With `CCOc1c(C)cc(Cl)c2c1C(=O)C=CC2=O`, the Ratio in experiment [1] came out at 0.83. This molecule displayed an IC50 in experiment [2] of 12.5 µg/mL (≈ 49.9 µM). The molecule further registered an Activity in experiment [5] of 99.9%. This molecule also showed an MIC in experiment [3] of 15 µg/mL (≈ 59.8 µM).

As for `CCOc1cc(C)cc2c1C(=O)C=CC2=O`, in experiment [1], the Ratio is given as 0.42. 6.3 µg/mL (≈ 29.1 µM) corresponded to half-maximal inhibition in experiment [2] (IC50). For the same molecule, the Activity in experiment [5] amounted to 99.9%. In experiment [3], the minimum inhibitory concentration (MIC) came out at 15 µg/mL (≈ 69.4 µM).

`CCOc1cc(C)c(Cl)c2c1C(=O)C=CC2=O`: in experiment [2], the IC50 is 36.1 µg/mL (≈ 144 µM). Moreover, the Activity in experiment [5] is reported as 99.9%. Besides, in experiment [3], the MIC is above 20 µg/mL.

Take `CC(=O)Oc1cc(OC(C)=O)c2c(OC(C)=O)cc(C)cc2c1OC(C)=O`: in experiment [2], the midpoint of inhibition, the IC50, lay at 17.2 µg/mL (≈ 45.9 µM). In experiment [5], this molecule came in with an Activity of 99.9%. The same molecule yielded an MIC in experiment [3] above 20 µg/mL.

For the molecule `COc1c(C)cc(Cl)c2c1C(=O)C=CC2=O`, the Ratio in experiment [1] was determined as 0.54. The molecule also registered an IC50 in experiment [2] of 8 µg/mL (≈ 33.8 µM). The molecule also displayed an Activity in experiment [5] of 99.9%. The MIC in experiment [3] is 15 µg/mL (≈ 63.4 µM).

`CC(=O)Oc1cc(OC(C)=O)c2c(OC(C)=O)cc(C)c(Cl)c2c1OC(C)=O`: the IC50 in experiment [2] was 27.8 µg/mL (≈ 68 µM). The Activity in experiment [5] was found to be 99.9%. In addition, the MIC in experiment [3] is above 20 µg/mL.

With `CC(=O)Oc1c(C)cc(Cl)c2c1C(=O)C=CC2=O`, the Ratio in experiment [1] is 2.1. It took 21.1 µg/mL (≈ 79.7 µM) to reach half-maximal inhibition in experiment [2] (IC50). In addition, the Activity in experiment [5] is on record as 99.9%. Besides, the lowest concentration to inhibit growth in experiment [3] (MIC) was 10 µg/mL (≈ 37.8 µM).

As for `Cc1cc(O)c2c(c1)C(=O)C(O)=CC2=O`, the Ratio in experiment [1] was determined as 0.63. In experiment [2], this molecule displayed an IC50 of 3.1 µg/mL (≈ 15.2 µM). In addition, the Activity in experiment [5] was 99.9%. In experiment [3], this molecule registered an MIC of 5 µg/mL (≈ 24.5 µM).

For `Cc1cc(O)c2c(c1Br)C(=O)C=CC2=O` [5-BROMO-8-HYDROXY-6-METHYLNAPHTHALENE-1,4-DIONE], in experiment [1], the Ratio was found to be 0.71. The IC50 in experiment [2] is 3.6 µg/mL (≈ 13.5 µM). In addition, 5 µg/mL (≈ 18.7 µM) was the least that counted as inhibitory in experiment [3] (MIC).

For `Cc1cc(O)c2c(c1Cl)C(=O)C=CC2=O` [5-CHLORO-8-HYDROXY-6-METHYLNAPHTHALENE-1,4-DIONE], the Ratio in experiment [1] is recorded as 0.25. Moreover, the kcat/Km in experiment [4] amounted to 9.1e+06. In experiment [2], the IC50 turned out to be 2.5 µg/mL (≈ 11.2 µM). In addition, in experiment [6], the Km amounted to 233 µM and the kcat came to 0.212 s⁻¹. For the same molecule, the MIC in experiment [3] stood at 10 µg/mL (≈ 44.9 µM).

In the case of `Cc1cc(O)c2c(c1F)C(=O)C=CC2=O` [5-FLUORO-8-HYDROXY-6-METHYLNAPHTHALENE-1,4-DIONE], in experiment [1], the Ratio stood at 0.76. In experiment [2], this molecule came in with an IC50 of 7.6 µg/mL (≈ 36.9 µM). The molecule further displayed an MIC in experiment [3] of 10 µg/mL (≈ 48.5 µM).

With `Cc1cc(Cl)c2c(c1O)C(=O)C=CC2=O` [8-CHLORO-5-HYDROXY-6-METHYLNAPHTHALENE-1,4-DIONE], the Ratio in experiment [1] is on record as 0.92. For the same molecule, the kcat/Km in experiment [4] amounted to 1.64e+08. Moreover, in experiment [2], the IC50 stood at 4.6 µg/mL (≈ 20.7 µM). Further, the Activity in experiment [5] stood at 99.9%. Also, in experiment [6], the Km was determined as 36 µM and the kcat amounted to 0.592 s⁻¹. Moreover, the minimal inhibitory concentration (MIC) in experiment [3] was 5 µg/mL (≈ 22.5 µM).

On to `Cc1cc(O)c2c(c1)C(=O)C(c1c(C)cc3c(c1O)C(=O)C=CC3=O)=CC2=O` [DIOSPYRIN], for which the Ratio in experiment [1] is reported as 2.2. Besides, the kcat/Km in experiment [4] worked out at 3.57e+07. This molecule displayed an IC50 in experiment [2] of 17.8 µg/mL (≈ 47.5 µM). In experiment [6], the Km was determined as 33 µM and the kcat came out at 0.118 s⁻¹. The molecule also came in with an MIC in experiment [3] of 8 µg/mL (≈ 21.4 µM).

For the molecule `CC[C@@H](CO)NCCN[C@@H](CC)CO` [ETHAMBUTOL], the Ratio in experiment [1] was above 75. Moreover, the IC50 in experiment [2] was above 150 µg/mL. The molecule further had an Activity in experiment [5] of 99.9%. In addition, 2 µg/mL (≈ 9.79 µM) was the least that counted as inhibitory in experiment [3] (MIC).

On to `NNC(=O)c1ccncc1` [ISONIAZID], for which the Ratio in experiment [1] was above 1000. In experiment [2], the IC50 is above 200 µg/mL. In experiment [5], this molecule had an Activity of 99.9%. Also, the MIC in experiment [3] came out at 0.2 µg/mL (≈ 1.46 µM).

Take `CC1=CC(=O)c2ccccc2C1=O` [MENADIONE]: the Ratio in experiment [1] was 1.3. For the same molecule, the kcat/Km in experiment [4] turned out to be 1.52e+07. In experiment [2], this molecule showed a 50% inhibitory concentration (IC50) of 6.5 µg/mL (≈ 37.8 µM). In experiment [5], this molecule came in with an Activity of 99.9%. Further, in experiment [6], the Michaelis-Menten constant (Km) is 483 µM and the kcat was found to be 0.732 s⁻¹. In experiment [3], this molecule displayed an MIC of 5 µg/mL (≈ 29 µM).

On to `O=C1C=CC(=O)c2ccccc21` [NAPHTHOQUINONE], for which the Ratio in experiment [1] is recorded as 1.19. The kcat/Km in experiment [4] is 3.36e+07. The molecule also showed an IC50 in experiment [2] of 1.2 µg/mL (≈ 7.59 µM). Besides, the Activity in experiment [5] is on record as 99.9%. In experiment [6], the Km stood at 324 µM and the kcat came to 1.09 s⁻¹. In experiment [3], this molecule registered an MIC of 1 µg/mL (≈ 6.32 µM).

Take `Cc1cc(O)c2c(c1)C(=O)C=C(c1c(C)cc(O)c3c1C(=O)C=CC3=O)C2=O` [NEODIOSPYRIN]: in experiment [1], the Ratio was 3.2. Besides, the kcat/Km in experiment [4] is 4.88e+07. The molecule also came in with an IC50 in experiment [2] of 32 µg/mL (≈ 85.5 µM). Further, in experiment [6], the Km amounted to 63 µM and the kcat came to 0.308 s⁻¹. For the same molecule, the MIC in experiment [3] was 10 µg/mL (≈ 26.7 µM).

`Cc1cc(O)c2c(c1)C(=O)C=CC2=O` [RAMENTACEONE]: the Ratio in experiment [1] is 30.22. Further, the kcat/Km in experiment [4] is 9.31e+07. In experiment [2], this molecule had an IC50 of 15.1 µg/mL (≈ 80.2 µM). Moreover, in experiment [6], the Km was determined as 254 µM and the kcat was determined as 2.37 s⁻¹. The molecule further came in with an MIC in experiment [3] of 0.5 µg/mL (≈ 2.66 µM).

`Cc1cc(O)c2c(c1)[C@H](O)CCC2=O` [SHINANOLONE] had an Activity in experiment [5] of 99.9%. Moreover, the outcome in experiment [7] was inactive. The MIC in experiment [3] is above 100 µg/mL.

As to `CN[C@@H]1[C@H](O[C@H]2[C@H](O[C@H]3[C@H](O)[C@@H](O)[C@H](N=C(N)N)[C@@H](O)[C@@H]3N=C(N)N)O[C@@H](C)[C@]2(O)C=O)O[C@@H](CO)[C@H](O)[C@H]1O` [STREPTOMYCIN], in experiment [1], the Ratio is above 120. The same molecule gave an IC50 in experiment [2] above 120 µg/mL. In experiment [5], this molecule displayed an Activity of 99.9%. This molecule also returned an MIC in experiment [3] of 1 µg/mL (≈ 1.72 µM).
